According to patent US20040077677A1, “Oral formulations” (Wyeth, priority 2002, published 2004):

Columns and labels:
tumor cells = settings: histologically diverse tumor cells; cited from earlier work
[1] = Aqueous stability of CCI-779; assay type: physicochemical; settings: cleavage of a lactone bond, forming ring opened seco-CCI-779
Method: (§1) One obstacle towards the formulation of CCI-779 is its poor aqueous solubility (less than 1 μg/ml), which makes its bioavailability low.

[2] = Aqueous solubility of CCI-779; assay type: physicochemical; settings: water (aqueous)
Method: as §1

human tumor xenografts = settings: nude mice, diverse histological types; cited from earlier work

aqueous stability [1]: exhibits aqueous instability
solubility [2]: < 1 µg/mL
SMILES: CO[C@H]1C[C@@H]2CC[C@@H](C)[C@@](O)(O2)C(=O)C(=O)N2CCCC[C@H]2C(=O)O[C@H]([C@H](C)C[C@@H]2CC[C@@H](OC(=O)C(C)(CO)CO)[C@H](OC)C2)CC(=O)[C@H](C)/C=C(\C)[C@@H](O)[C@@H](OC)C(=O)[C@H](C)C[C@H](C)/C=C/C=C/C=C/1C [CCI-779, rapamycin 42-ester with 3-hydroxy-2-(hydroxymethyl)-2-methylpropionic acid]
inhibition of tumor cell growth in vitro (tumor cells): inhibit the growth of a number of histologically diverse tumor cells
activity against human tumor xenografts (human tumor xenografts): has activity against human tumor xenografts of diverse histological types
